Results taken from ChEMBL document CHEMBL4138146, “A Schmidt rearrangement-mediated synthesis of novel tetrahydro-benzo[1,4]diazepin-5-ones as potential anticancer and antiprotozoal agents” (Eur J Med Chem, 2017).

Experiments:
Assay type in all cases: functional
CCRF-CEM = experiment: Growth inhibition of human CCRF-CEM cells incubated for 48 hrs by sulforhodamine B assay
K562 = experiment: Growth inhibition of human K562 cells incubated for 48 hrs by sulforhodamine B assay; conditions: K562, 48 h
MOLT-4 = experiment: Growth inhibition of human MOLT4 cells incubated for 48 hrs by sulforhodamine B assay; conditions: MOLT-4, 48 h; for CC50: read-out: LC50 (the source's name)
SR = experiment: Growth inhibition of human SR cells incubated for 48 hrs by sulforhodamine B assay
HOP-62 = experiment: Growth inhibition of human HOP62 cells incubated for 48 hrs by sulforhodamine B assay; conditions: HOP-62, 48 h
NCI-H322M = experiment: Growth inhibition of human NCI-H322M cells incubated for 48 hrs by sulforhodamine B assay
COLO 205 [1] = experiment: Growth inhibition of human COLO205 cells incubated for 48 hrs by sulforhodamine B assay; conditions: COLO 205, 48 h
HCT-15 [2] = experiment: Growth inhibition of human HCT15 cells incubated for 48 hrs by sulforhodamine B assay; conditions: HCT-15, 48 h; for CC50: read-out: LC50 (the source's name)
KM12 = experiment: Growth inhibition of human KM12 cells incubated for 48 hrs by sulforhodamine B assay; conditions: KM12, 48 h
SF-268 [3] = experiment: Growth inhibition of human SF268 cells incubated for 48 hrs by sulforhodamine B assay; conditions: SF-268, 48 h
SF-295 [4] = experiment: Growth inhibition of human SF295 cells incubated for 48 hrs by sulforhodamine B assay; conditions: SF-295, 48 h
OVCAR-5 [5] = experiment: Growth inhibition of human OVCAR5 cells incubated for 48 hrs by sulforhodamine B assay; conditions: OVCAR-5, 48 h; for CC50: read-out: LC50 (the source's name)
A498 = experiment: Growth inhibition of human A498 cells incubated for 48 hrs by sulforhodamine B assay; conditions: A498, 48 h; for CC50: read-out: LC50 (the source's name)
ACHN = experiment: Growth inhibition of human ACHN cells incubated for 48 hrs by sulforhodamine B assay; conditions: for CC50: read-out: LC50 (the source's name)
CAKI-1 = experiment: Growth inhibition of human Caki1 cells incubated for 48 hrs by sulforhodamine B assay; conditions: CAKI-1, 48 h; for CC50: read-out: LC50 (the source's name)
SN12C = experiment: Growth inhibition of human SN12C cells incubated for 48 hrs by sulforhodamine B assay
TK-10 [6] = experiment: Growth inhibition of human TK10 cells incubated for 48 hrs by sulforhodamine B assay; conditions: TK-10, 48 h
UO-31 = experiment: Growth inhibition of human UO31 cells incubated for 48 hrs by sulforhodamine B assay; conditions: UO-31, 48 h
MDA-MB-231 [7] = experiment: Growth inhibition of human MDA-MB-231 cells incubated for 48 hrs by sulforhodamine B assay; conditions: MDA-MB-231, 48 h
COLO 205 [8] = experiment: Growth inhibition of human COLO205 cells assessed as cell growth at 10^-8 M incubated for 48 hrs by sulforhodamine B assay relative to control; conditions: COLO 205, 48 h, read-out: Activity
HCT-15 [9] = experiment: Growth inhibition of human HCT15 cells assessed as cell growth at 10^-8 M incubated for 48 hrs by sulforhodamine B assay relative to control; conditions: HCT-15, 48 h, read-out: Activity
LOX IMVI [10] = experiment: Growth inhibition of human LOXIMVI cells assessed as cell growth at 10^-8 M incubated for 48 hrs by sulforhodamine B assay relative to control; conditions: read-out: Activity
TK-10 [11] = experiment: Growth inhibition of human TK10 cells assessed as cell growth at 10^-8 M incubated for 48 hrs by sulforhodamine B assay relative to control; conditions: TK-10, 48 h, read-out: Activity
DU-145 = experiment: Growth inhibition of human DU145 cells assessed as cell growth at 10^-8 M incubated for 48 hrs by sulforhodamine B assay relative to control; conditions: DU-145, 48 h, read-out: Activity
MDA-MB-231 [12] = experiment: Growth inhibition of human MDA-MB-231 cells assessed as cell growth at 10^-8 M incubated for 48 hrs by sulforhodamine B assay relative to control; conditions: MDA-MB-231, 48 h, read-out: Activity
HCT-15 [13] = experiment: Growth inhibition of human HCT15 cells assessed as cell growth at 10^-7 M incubated for 48 hrs by sulforhodamine B assay relative to control; conditions: HCT-15, 48 h, read-out: Activity
MDA-MB-435 = experiment: Growth inhibition of human MDA-MB-435 cells assessed as cell growth at 10^-7 M incubated for 48 hrs by sulforhodamine B assay relative to control; conditions: MDA-MB-435, 48 h, read-out: Activity
IGROV-1 = experiment: Growth inhibition of human IGROV1 cells assessed as cell growth at 10^-7 M incubated for 48 hrs by sulforhodamine B assay relative to control; conditions: IGROV-1, 48 h, read-out: Activity
NCI-H23 [14] = experiment: Growth inhibition of human NCI-H23 cells assessed as cell growth at 10^-6 M incubated for 48 hrs by sulforhodamine B assay relative to control; conditions: NCI-H23, 48 h, read-out: Activity
SF-268 [15] = experiment: Growth inhibition of human SF268 cells assessed as cell growth at 10^-6 M incubated for 48 hrs by sulforhodamine B assay relative to control; conditions: SF-268, 48 h, read-out: Activity
LOX IMVI [16] = experiment: Growth inhibition of human LOXIMVI cells assessed as cell growth at 10^-6 M incubated for 48 hrs by sulforhodamine B assay relative to control; conditions: read-out: Activity
NCI-H23 [17] = experiment: Growth inhibition of human NCI-H23 cells assessed as cell growth at 10^-5 M incubated for 48 hrs by sulforhodamine B assay relative to control; conditions: NCI-H23, 48 h, read-out: Activity
PC-3 = experiment: Growth inhibition of human PC3 cells assessed as cell growth at 10^-5 M incubated for 48 hrs by sulforhodamine B assay relative to control; conditions: PC-3, 48 h, read-out: Activity
HT-29 = experiment: Growth inhibition of human HT-29 cells assessed as cell growth at 10^-4 M incubated for 48 hrs by sulforhodamine B assay relative to control; conditions: HT-29, 48 h, read-out: Activity
SF-295 [18] = experiment: Growth inhibition of human SF295 cells assessed as cell growth at 10^-4 M incubated for 48 hrs by sulforhodamine B assay relative to control; conditions: SF-295, 48 h, read-out: Activity
OVCAR-5 [19] = experiment: Growth inhibition of human OVCAR5 cells assessed as cell growth at 10^-4 M incubated for 48 hrs by sulforhodamine B assay relative to control; conditions: OVCAR-5, 48 h, read-out: Activity
[20] = read-out: LC50 (the source's name)

## COc1cccc2c1C(=O)c1c(O)c3c(c(O)c1C2=O)C[C@@](O)(C(=O)CO)C[C@@H]3O[C@H]1C[C@H](N)[C@H](O)[C@H](C)O1 [DOXORUBICIN]
CCRF-CEM
  GI50: 0.08 µM
K562
  GI50: 0.19 µM
MOLT-4
  GI50: 0.03 µM
  CC50: 100 µM
SR
  GI50: 0.03 µM
HOP-62
  GI50: 0.07 µM
NCI-H322M
  GI50: 0.54 µM
COLO 205 [1]
  GI50: 0.18 µM
HCT-15 [2]
  CC50: 100 µM
KM12
  GI50: 0.27 µM
SF-268 [3]
  GI50: 0.1 µM
SF-295 [4]
  GI50: 0.1 µM
OVCAR-5 [5]
  GI50: 0.41 µM
  CC50: 100 µM
A498
  GI50: 0.1 µM
  CC50: 1.9 µM
ACHN
  GI50: 0.08 µM
  CC50: 100 µM
CAKI-1
  GI50: 0.95 µM
  CC50: 100 µM
SN12C
  GI50: 0.07 µM
TK-10 [6]
  GI50: 0.38 µM
UO-31
  GI50: 0.49 µM
MDA-MB-231 [7]
  GI50: 0.51 µM

## CCCCOc1nc2ccccc2cc1C1CNC(=O)c2ccccc2N1 (stereo not drawn)
COLO 205 [8]
  growth at 0.01 µM: 96%
HCT-15 [9]
  growth at 0.01 µM: 95%
LOX IMVI [10]
  growth at 0.01 µM: 95%
TK-10 [11]
  growth at 0.01 µM: 75%
DU-145
  growth at 0.01 µM: 101%
MDA-MB-231 [12]
  growth at 0.01 µM: 98%
HCT-15 [13]
  growth at 0.1 µM: 98%
MDA-MB-435
  growth at 0.1 µM: 98%
IGROV-1
  growth at 0.1 µM: 92%
NCI-H23 [14]
  growth at 1 µM: 91%
SF-268 [15]
  growth at 1 µM: 80%
LOX IMVI [16]
  growth at 1 µM: 80%
NCI-H23 [17]
  growth at 10 µM: 33%
PC-3
  growth at 10 µM: 9%
HT-29
  growth at 100 µM: -61%
SF-295 [18]
  growth at 100 µM: -69%
OVCAR-5 [19]
  growth at 100 µM: -24%
CCRF-CEM
  GI50: 2.95 µM
  LC50 (concentration killing 50% of cells): > 100 µM
  TGI: 24.9 µM
K562
  GI50: 0.84 µM
  LC50: > 100 µM
  TGI: 16.4 µM
MOLT-4
  GI50: 3.05 µM
  TGI: 13.6 µM
  CC50: > 100 µM
SR
  GI50: 1.26 µM
  LC50: > 100 µM
  TGI: 10.7 µM
HOP-62
  GI50: 2.99 µM
  LC50: 76.7 µM
  TGI: 17.4 µM
NCI-H322M
  GI50: 4.5 µM
  TGI: 45.5 µM
NCI-H322M; [20]
  CC50: > 100 µM
COLO 205 [1]
  GI50: 2.19 µM
  TGI: 4.95 µM
COLO 205 [1]; [20]
  CC50: 23 µM
HCT-15 [2]
  GI50: 1.92 µM
  TGI: 10.8 µM
  CC50: 48.6 µM
KM12
  GI50: 3.3 µM
  TGI: 80.6 µM
KM12; [20]
  CC50: > 100 µM
SF-268 [3]
  GI50: 4.14 µM
  TGI: > 100 µM
SF-268 [3]; [20]
  CC50: > 100 µM
SF-295 [4]
  GI50: 1.4 µM
  TGI: 9.82 µM
SF-295 [4]; [20]
  CC50: 52.4 µM
OVCAR-5 [5]
  GI50: 6.42 µM
  TGI: 41 µM
  CC50: > 100 µM
A498
  GI50: 0.39 µM
  TGI: 4.7 µM
  CC50: > 100 µM
ACHN
  GI50: 3.92 µM
  TGI: 17.1 µM
  CC50: 5.95 µM
CAKI-1
  GI50: 2.83 µM
  TGI: 34.4 µM
  CC50: > 100 µM
SN12C
  GI50: 3.34 µM
  TGI: 18.2 µM
SN12C; [20]
  CC50: 90.6 µM
TK-10 [6]
  GI50: 4.93 µM
  TGI: 21.6 µM
TK-10 [6]; [20]
  CC50: 73.8 µM
UO-31
  GI50: 2.41 µM
  TGI: 20.9 µM
UO-31; [20]
  CC50: 67.2 µM
MDA-MB-231 [7]
  GI50: 3.83 µM
  TGI: 20.9 µM
MDA-MB-231 [7]; [20]
  CC50: 90.3 µM
